Assay results reported in ChEMBL document CHEMBL3272224, “Synthesis and hypotensive activity of N-alkyl-N"-cyano-N'-pyridylguanidines” (J Med Chem, 1978).

How the values were obtained:
[1] = Toxicity in po dosed mouse assessed as mortality after 7 days; settings: in vivo
[2] = tested on: Rattus norvegicus; test: Hypotensive activity in po dosed spontaneously hypertensive Wistar-Okamoto rat assessed as dose required to cause 30 mmHg fall of blood pressure administered for 5 days; type: functional; settings: 120 h, read-out: MED

SMILES | LD50 at 168 h [1] | minimal effective dose [2]
CCC(C)(C)N/C(=N\C(N)=O)Nc1cccnc1 | > 1000 mg/kg | > 50 mg/kg
CC(C)C(/N=C(\NC#N)Nc1cccnc1)C(C)C | > 1000 mg/kg | 5 mg/kg
Cc1cc(C)nc(N/C(=N/C(C)(C)C)NC#N)c1 | > 1000 mg/kg | > 50 mg/kg
CCC(C)(C)N/C(=N\C#N)Nc1ccc(N(C)C)cc1 | > 1000 mg/kg | > 50 mg/kg
C/N=C(\NC#N)Nc1cccnc1 | > 1000 mg/kg | > 50 mg/kg
N#C/N=C(/Nc1cccnc1)NC12CC3CC(CC(C3)C1)C2 | > 1000 mg/kg | 50 mg/kg
CC(C)C(/N=C(\NC#N)Nc1ccncc1)C(C)C | 250 mg/kg | 8 mg/kg
CC(C)(C)N/C(=N\C#N)NCc1cccnc1 | > 1000 mg/kg | 2.5 mg/kg
CC1(/N=C(\NC#N)Nc2cccnc2)CCC1 | > 1000 mg/kg | 50 mg/kg
CC(C)(C)/N=C(\NC#N)Nc1cncc(Br)c1 | 600 mg/kg | 0.5 mg/kg
CC(C)(C)C/N=C(\NC#N)Nc1ccncc1 | 600 mg/kg | 5 mg/kg
CCC(CC)/N=C(\NC#N)Nc1ccncc1 | 200 mg/kg | 2.5 mg/kg
N#CN/C(=N\C1CC1)Nc1cccnc1 | > 1000 mg/kg | 20 mg/kg
CCC(CC)(CC)/N=C(\NC#N)Nc1ccncc1 | > 1000 mg/kg | 2.5 mg/kg
CC(C)CC(C)(C)/N=C(\NC#N)Nc1ccncc1 | > 1000 mg/kg | 20 mg/kg
CN(C)c1ccc(N/C(=N/C#N)NC(C)(C)C)cc1 | > 1000 mg/kg | > 50 mg/kg
Cc1noc(C)c1N/C(=N/C#N)NC(C)C(C)(C)C (stereo not drawn) | > 1000 mg/kg | 20 mg/kg
CCOC(=O)/N=C(/Nc1cccnc1)NC(C)(C)CC | 600 mg/kg | 20 mg/kg
Cc1cccc(C)c1/N=C(\NC#N)Nc1cccnc1 | > 1000 mg/kg | 50 mg/kg
CCC(CC)(CC)/N=C(\NC#N)Nc1cccnc1 | > 1000 mg/kg | 1 mg/kg
CC(C)C/N=C(\NC#N)Nc1cccnc1 | > 1000 mg/kg | 20 mg/kg
CCC(C)(C)N/C(=N\C#N)Nc1ccc[n+](C)c1.[I-] | > 1000 mg/kg | 20 mg/kg
CC(C)(C)CC(C)(C)/N=C(\NC#N)Nc1ccncc1 | > 1000 mg/kg | 50 mg/kg
CCC(C)(C)N/C(N)=N/C#N [GUANCYDINE] | 800 mg/kg | 15 mg/kg

SMILES | LD50 at 168 h [1] | minimal effective dose [2]
CC(C)(C)N/C(=N\C#N)NCc1ccccn1 | 600 mg/kg | > 20 mg/kg
Cc1cccc(C)c1N/C(=N/C#N)NC(C)(C)C | > 1000 mg/kg | > 50 mg/kg
CCC(C)(C)/N=C(\NC#N)Nc1c(C)cc(C)nc1C | 800 mg/kg | > 25 mg/kg
N#CN/C(=N\C1CCCCC1)Nc1cccnc1 | > 1000 mg/kg | 20 mg/kg
CCn1nc(C)cc1N/C(=N/C#N)NC(C)(C)C | > 1000 mg/kg | 10 mg/kg
CCC(C)(C)N/C(=N\C#N)NCCCN(C)C | > 1000 mg/kg | 25 mg/kg
CC(C)(C)/N=C(\NC#N)Nc1ccc(Cl)nc1Cl | > 1000 mg/kg | > 50 mg/kg
CCC(C)(CC)/N=C(\NC#N)Nc1cccnc1 | > 1000 mg/kg | 0.5 mg/kg
CC(C)CC/N=C(\NC#N)Nc1cccnc1 | > 1000 mg/kg | 20 mg/kg
CCN(CC)CC/N=C(\NC#N)Nc1cccnc1 | 250 mg/kg | > 8 mg/kg
CCC(C)(C)N/C(=N\S(=O)(=O)c1ccc(C)cc1)Nc1cccnc1 | > 1000 mg/kg | > 50 mg/kg
CCC(C)(C)/N=C(\Nc1cccnc1)Nc1nccs1 | > 1000 mg/kg | 20 mg/kg
N#CN/C(=N\CC1CCCO1)Nc1cccnc1 (stereo not drawn) | > 1000 mg/kg | 50 mg/kg
CC(C)(C)N/C(=N\C#N)Nc1c(Cl)cccc1Cl | > 1000 mg/kg | > 50 mg/kg
N#CN/C(=N\c1cccnc1)N1CCCCC1 | > 1000 mg/kg | 20 mg/kg
CC(C)CC(C)(C)/N=C(\NC#N)Nc1cccnc1 | > 1000 mg/kg | 2.5 mg/kg
N#CN/C(=N\Cc1ccco1)Nc1cccnc1 | > 1000 mg/kg | 20 mg/kg
CCC(C)(C)N/C(=N\C#N)Nc1ccc[n+]([O-])c1 | > 1000 mg/kg | 20 mg/kg
CCCC/N=C(\NC#N)Nc1cccnc1 | > 1000 mg/kg | 20 mg/kg
CC(C)(C)C(C)(C)/N=C(\NC#N)Nc1ccncc1 | > 1000 mg/kg | 20 mg/kg
CC(C)(C)/N=C(\NC#N)Nc1ccc(Cl)cn1 | 800 mg/kg | 25 mg/kg
CCC(C)(C)N/C(=N\C#N)Nc1c(C)cccc1C | > 1000 mg/kg | 50 mg/kg
CCC(C)(C)N/C(=N\C(=O)C(F)(F)F)Nc1cccnc1 | > 1000 mg/kg | > 50 mg/kg
CC(N/C(=N\C#N)NCc1ccncc1)C(C)(C)C (stereo not drawn) | > 1000 mg/kg | 20 mg/kg

SMILES | LD50 at 168 h [1] | minimal effective dose [2]
CC(C)(C)N/C(=N\C#N)Nc1ccc(O)cc1 | > 1000 mg/kg | > 50 mg/kg
CCC(C)(C)N/C(=N\c1cnccn1)Nc1cccnc1 | 800 mg/kg | 25 mg/kg
N#CN/C(=N\C1CCCC1)Nc1cccnc1 | 1000 mg/kg | 20 mg/kg
CCC(C)(C)N/C(=N\C#N)Nc1ccc(OC)cc1 | > 1000 mg/kg | 50 mg/kg
CCC(/N=C(\NC#N)Nc1ccncc1)C(C)C (stereo not drawn) | 600 mg/kg | 5 mg/kg
CCCN(CCC)S(=O)(=O)/N=C(/Nc1cccnc1)NC(C)(C)CC | > 1000 mg/kg | > 50 mg/kg
Cc1noc(C)c1N/C(=N/C#N)NC(C)(C)C | > 1000 mg/kg | 10 mg/kg
CC(C)(C)/N=C(\NC#N)Nc1cccnc1Cl | > 1000 mg/kg | 5 mg/kg
CC(C)(C)C/N=C(/NC#N)Nc1cccnc1 | > 1000 mg/kg | 2.5 mg/kg
CCCCCCC/N=C(\NC#N)Nc1cccnc1 | > 1000 mg/kg | > 50 mg/kg
CCC(C)(CC)/N=C(\NC#N)Nc1ccncc1 | 300 mg/kg | 0.5 mg/kg
N#CN/C(=N\C1CCCCC1)Nc1ccccn1 | 1000 mg/kg | > 35 mg/kg
N#CN/C(=N\c1ccccc1)Nc1ccncc1 | > 1000 mg/kg | 50 mg/kg
CC(C)(C)/N=C(\NC#N)Nc1ccncc1 | > 1000 mg/kg | 2.5 mg/kg
CCC(C)C(C)/N=C(\NC#N)Nc1ccncc1 (stereo not drawn) | 250 mg/kg | 8 mg/kg
CCC(C)(C)N/C(=N\C=O)Nc1cccnc1 | 600 mg/kg | > 20 mg/kg
CCC(C)(C)N/C(=N\O)Nc1cccnc1 | 600 mg/kg | > 20 mg/kg
N#CN/C(=N\c1ccccc1)Nc1cccnc1 | > 1000 mg/kg | 5 mg/kg
CC(C)C(=O)N(/C(=N\C#N)Nc1cccnc1)C(C)(C)C | > 1000 mg/kg | 10 mg/kg
N#CN/C(=N\Cc1ccccc1)Nc1cccnc1 | > 1000 mg/kg | 20 mg/kg
CC(/N=C(\NC#N)Nc1ccncc1)C1CC1 (stereo not drawn) | 200 mg/kg | 3 mg/kg
CC(C)(C)N/C(=N\C#N)NCCc1ccccn1 | 800 mg/kg | 25 mg/kg
CC(=O)Nc1ccc(N/C(=N/C#N)NC(C)(C)C)cc1 | > 1000 mg/kg | > 50 mg/kg
CCC(C)(C)N/C(=N\C#N)Nc1ccccc1 | > 1000 mg/kg | 50 mg/kg

SMILES | LD50 at 168 h [1] | minimal effective dose [2]
Cc1nn(C)c(N/C(=N/C#N)NC(C)(C)C)c1Cl | > 1000 mg/kg | 20 mg/kg
CC(C)CC(C)/N=C(\NC#N)Nc1ccncc1 (stereo not drawn) | 1000 mg/kg | 35 mg/kg
CC(C)C(C)(C)/N=C(\NC#N)Nc1cccnc1 | > 1000 mg/kg | 1 mg/kg
CCC(C)(C)N/C(=N\c1ncccn1)Nc1cccnc1.Cl | 1000 mg/kg | > 35 mg/kg
CCC(C)/N=C(\NC#N)Nc1cccnc1 (stereo not drawn) | > 1000 mg/kg | 20 mg/kg
Cc1cc(C)c(/N=C(\NC#N)NC(C)(C)C)c(C)n1 | > 1000 mg/kg | > 50 mg/kg
COc1ccc(/N=C(\NC#N)NC(C)(C)C)c(OC)n1 | > 1000 mg/kg | > 50 mg/kg
CC(C)(C)N/C(=N\C#N)Nc1cnc2ccccc2c1 | > 1000 mg/kg | 20 mg/kg
N#CN/C(=N\C1CCCCC1)Nc1ccncc1 | 600 mg/kg | 20 mg/kg
CC(C)(C)/N=C(\NC#N)Nc1ccccn1 | 600 mg/kg | > 20 mg/kg
N#CNC(=N)Nc1cccnc1 | > 1000 mg/kg | 50 mg/kg
COc1ccc(N/C(=N/C(C)(C)C)NC#N)cn1 | 400 mg/kg | 15 mg/kg
CCC(C)(C)/N=C(\NC#N)Nc1ccncc1 | 600 mg/kg | 2.5 mg/kg
N#C/N=C(/Nc1ccncc1)NC12CC3CC(CC(C3)C1)C2 | > 1000 mg/kg | 5 mg/kg
CCOc1ccccc1N/C(=N/C#N)NC(C)(C)CC | > 1000 mg/kg | 20 mg/kg
CCCCC/N=C(\NC#N)Nc1cccnc1 | > 1000 mg/kg | 20 mg/kg
Cc1nn(C)c(C)c1N/C(=N/C#N)NC(C)(C)C | > 1000 mg/kg | 5 mg/kg
CC(/N=C(/NC#N)Nc1cccnc1)C(C)(C)C (stereo not drawn) | 1000 mg/kg | 1 mg/kg
N#CN/C(=N\CCc1ccccc1)Nc1ccncc1 | > 1000 mg/kg | 20 mg/kg
CC(NC(=NC#N)Nc1ccccc1)C(C)(C)C (stereo not drawn) | > 1000 mg/kg | > 50 mg/kg
CCC(CC)/N=C(\NC#N)Nc1cccnc1 | 600 mg/kg | 20 mg/kg
CCOCC/N=C(\NC#N)Nc1cccnc1 | 600 mg/kg | > 20 mg/kg
